Test results: the NIST ThermoML archive (doi:10.1016/j.jct.2015.11.021)
Numbers after ± are expanded uncertainties.

Conditions: Liquid, Closed cell (Static) method

SMILES	vapor or sublimation pressure (303.15 K) [kPa]	vapor or sublimation pressure (323.15 K) [kPa]	vapor or sublimation pressure (343.15 K) [kPa]	vapor or sublimation pressure (363.15 K) [kPa]	vapor or sublimation pressure (373.15 K) [kPa]
CCCC [butane]	283.7 ± 1.1	496.2 ± 1.2	809.8 ± 1.5	1249.8 ± 2.1	1526.8 ± 2.4
FC(F)CC(F)(F)F [1,1,1,3,3-pentafluoropropane]	177.8 ± 1.1	344.7 ± 1.2	610.2 ± 1.5	1006.7 ± 2	1266.2 ± 2.4
